Reference: patent publication US20180000136A1, “BIOLOGICAL INORGANIC COMPOUND COMPLEX HAVING REDUCED OXYGEN AND HIGH REDUCING ABILITY” (priority 2011, published 2018)

Assays:
[1] = medication of Graves' disease; Non-patent documents 1 and 2; cited from earlier work
[2] = Degradation of H2O2 in a cell-free system (Amplex red); assay type: biochemical; conditions: 20 μM H2O2, 30 min at 37° C.
Procedure: Then, Amplex red (Invitrogen) is added and incubated for 30 min in a dark room. The absorbance at 560 nm is measured by a microplate reader (Molecular Devices, Sunnyvale, Calif.).

LPO-H2O2 reaction = LPO-H2O2 reaction (Bos taurus, UniProt P80025); assay: Compound II formation from the peroxidase-H2O2 reaction (OD 430 nm); assay type: biochemical; conditions: KI at 1 μM
Text: Compound II, however, is relatively stable and can be measured at OD of 430 nm. The compound II level is well maintained after mixing LPO and H2O2 (Referring to FIG. 28). […] Since the compound II is derived from the compound I, the inhibition of compound I is also understandable.

Row | compound II formation (LPO-H2O2 reaction) | SMILES | side-effects [1] | degradation of H2O2 [2]
1 |  | Cn1cc[nH]c1=S [MMI, methimazole] | an allergic reaction, an increase of a variety of enzyme levels in liver, a joint pain and an agranulocytosis in case of a severe condition | can degrade H2O2 although higher concentration of MMI is required
2 | partially inhibits | [I-].[K+] [KI] |  | 
3 |  | CCCc1cc(=O)[nH]c(=S)[nH]1 [PTU, propylthiouracil] | severe liver damage | 
